For 25 compounds, IC50, EC50 and Papp results are on record in US10829496B2, “Thienopyridines and benzothiophenes useful as IRAK4 inhibitors” (BRISTOL-MYERS SQUIBB COMPANY, priority 2017, dated 2020).

Some results are limits rather than exact numbers.

The target of one data set is IRAK4 (Homo sapiens (Human), UniProt Q9NWZ3). Nature of the data set: IRAK4 Inhibition Assay. The class given is biochemical. As to conditions: ATP 500 μM; IRAK4 0.6 nM; 60 min at room temperature. The method, then:
The assays were performed in U-bottom 384-well plates. The final assay volume was 30 μL prepared from 15 μL additions of enzyme and substrates (fluoresceinated peptide and ATP) and test compounds in assay buffer (20 mM HEPES pH 7.2, 10 mM MgCl2, 0.015% Brij 35 and 4 mM DTT). The reaction was initiated by the combination of IRAK4 with substrates and test compounds. The reaction mixture was incubated at room temperature for 60 min. and terminated by adding 45 μL of 35 mM EDTA to each sample. The reaction mixture was analyzed on the Caliper LABCHIP® 3000 (Caliper, Hopkinton, Mass.) by electrophoretic separation of the fluorescent substrate and phosphorylated product. Inhibition data were calculated by comparison to no enzyme control reactions for 100% inhibition and vehicle-only reactions for 0% inhibition. The final concentrations of reagents in the assays are ATP, 500 μM; FL-IPTSPITTTYFFFKKK peptide 1.5 μM; IRAK4, 0.6 nM; and DMSO, 1.6%.

The subject of data set [1] is IL-6 levels in human whole blood stimulated with a TLR2 agonist. Briefly: IRAK4 Whole Blood Assay (TLR2 agonist lipoteichoic acid-stimulated IL-6). The class given is cell-based. As to conditions: 10 μg/mL lipoteichoic acid, 5 hours, IL-6 readout. The method, then:
Human whole blood containing the anti-coagulant ACD-A was plated in 384-well plate (25 μL/well) and incubated with compounds for 60 minutes at 37° C. in a 5% CO2 incubator. The blood was stimulated with a TLR2 agonist, 10 μg/mL final concentration of lipoteichoic acid (Invivogen, San Diego, Calif.) in 25 μL RPMI (Gibco) for 5 hours in a 5% CO2 incubator. At the end of the incubation, plates were centrifuged at 2300 rpm for 5 minutes. Supernatants were harvested and analyzed for IL-6 levels by Flow Cytometry beads assay (BD Biosciences, San Jose, Calif.).

Data set [2] in a line: Caco-2 Permeability Assay. The class given is in vitro ADME. The following applies: human, 3 μM compound, 2 hours at 37° C., direction not given. The method, then:
Caco-2 Permeability Assay
Thirteen to 27 days prior to assay, Caco-2 cells were seeded onto collagen-coated polycarbonate filter membranes in 24-well transwell plates at a density of 1.45×10^5 cells/cm^2, approximately 4.8×10^4 cells per well. The cells were grown in a culture medium consisting of DMEM supplemented with 10% fetal bovine serum, 10 mM HEPES, 1% nonessential amino acids, 2 mM L-glutamine, 100 U/mL penicillin-G, and 100 μg/mL streptomycin. The culture medium was replaced every 3 days and the cells were maintained at 37° C. in a 95% relative humidity and 5% CO2 atmosphere. The cells were evaluated for tight junction formation just prior to assay. The test compound was solubilized to 10 mM in 100% DMSO and diluted to 3 μM in assay buffer. Permeability studies were initiated by adding 200 μL assay buffer plus/minus compound to the apical transwell compartment and 600 μL assay buffer plus/minus compound to the basolateral compartment of the 24-well transwell low-binding cluster plate. For apical-to-basolateral (A to B) permeability (absorptive direction), buffer containing compound was placed in the apical compartment (donorwells), while buffer alone was placed in the corresponding basolateral compartments (receiverwells). For basolateral-to-apical (B to A) permeability (secretive direction), buffer containing compound was placed in the basolateral compartment (donor wells), while buffer alone was placed in the corresponding apical compartments (receiver wells). Transwells were then incubated for 2 hours at 37° C. in a 95% relative humidity and 5% CO2 atmosphere with gentle agitation. Following incubation, 100 μL was removed from each apical and basolateral compartment and transferred to 96-well low binding plates that had been previously loaded with 100 μL/well of acetonitrile containing 250 nM propranolol, 250 nM diclofenac, and 500 nM tolbutamide as internal standards. The samples were subsequently analyzed by LC-MS/MS to determine concentrations of compound.
A general note: Caco-2 cells form a polarised layer with tight junctions and transporters.

Chain of IRAK4 (Q9NWZ3 whole entry): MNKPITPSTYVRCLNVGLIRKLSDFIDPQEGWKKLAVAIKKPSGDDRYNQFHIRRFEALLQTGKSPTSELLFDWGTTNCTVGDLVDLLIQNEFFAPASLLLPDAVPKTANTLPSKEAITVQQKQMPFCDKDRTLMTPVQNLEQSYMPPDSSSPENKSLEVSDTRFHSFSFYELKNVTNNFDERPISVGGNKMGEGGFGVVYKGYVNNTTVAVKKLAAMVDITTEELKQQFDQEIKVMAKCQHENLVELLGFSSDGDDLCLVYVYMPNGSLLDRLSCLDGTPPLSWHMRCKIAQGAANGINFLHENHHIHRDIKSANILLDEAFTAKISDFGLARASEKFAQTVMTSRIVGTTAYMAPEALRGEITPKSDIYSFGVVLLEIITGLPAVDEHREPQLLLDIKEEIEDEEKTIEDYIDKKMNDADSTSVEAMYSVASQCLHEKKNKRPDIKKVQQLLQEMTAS

For the compound `CC[C@H]1[C@@H](COc2csc3cc(C(N)=O)c(OC)nc23)NC(=O)[C@@H]1F` [Example 8, 3-(((2S,3S,4R)-3-ethyl-4-fluoro-5-oxopyrrolidin-2-yl)methoxy)-5-methoxythieno[3,2-b]pyridine-6-carboxamide], at IRAK4, the IC50 was determined as 0.7 nM. The same compound gave an EC50 in data set [1] of 92 nM. The compound also displayed an apparent permeability (Papp) at 2 h, 3 µM in data set [2] of 4.2 ×10⁻⁶ cm/s.
`COc1nc2c(OC[C@@H]3CCC(=O)N3)csc2cc1C(N)=O` [Example 5, (S)-5-methoxy-3-((5-oxopyrrolidin-2-yl)methoxy)thieno[3,2-b]pyridine-6-carboxamide]: at IRAK4, the IC50 turned out to be 20.3 nM. In data set [1], this compound showed an EC50 of 2010 nM.
With `CC[C@@H]1CC(=O)N[C@@H]1COc1csc2cc(C(N)=O)c(OC3CC3)nc12` [Example 20, 5-cyclopropoxy-3-(((2S,3R)-3-ethyl-5-oxopyrrolidin-2-yl)methoxy)thieno[3,2-b]pyridine-6-carboxamide], on IRAK4, the IC50 was 19.1 nM. The compound further came in with an EC50 in data set [1] of 473 nM.
As to `COc1nc2c(OC[C@@H]3CC(C)C(=O)N3)csc2cc1C(N)=O` (single isomer, unassigned) [Example 13], the IC50 at IRAK4 worked out at 36.2 nM.
With `CC[C@@H]1[C@H](F)C(=O)N[C@@H]1COc1csc2cc(C(N)=O)c(OC)cc12` [Example 4, 3-(((2S,3S,4S)-3-ethyl-4-fluoro-5-oxopyrrolidin-2-yl)methoxy)-5-methoxybenzo[b]thiophene-6-carboxamide], the IC50 at IRAK4 was found to be 0.4 nM. A half-maximal effect in data set [1] (EC50) was put at 153 nM. Also, in data set [2], the Papp at 2 h, 3 µM worked out at 8.5 ×10⁻⁶ cm/s.
In the same order, the values of `COc1nc2c(OC[C@H]3NC(=O)C(F)(F)[C@H]3C)csc2cc1C(N)=O` [Example 21, 3-(((2S,3S)-4,4-difluoro-3-methyl-5-oxopyrrolidin-2-yl)methoxy)-5-methoxythieno[3,2-b]pyridine-6-carboxamide] are 1.3 nM, 127 nM and 13.6 ×10⁻⁶ cm/s.
Turning to `CC[C@@H]1OC(=O)N[C@@H]1COc1csc2cc(C(N)=O)c(OC)nc12` [Example 26, 3-(((4R,5S)-5-ethyl-2-oxooxazolidin-4-yl)methoxy)-5-methoxythieno[3,2-b]pyridine-6-carboxamide], on IRAK4, the IC50 came out at 6.8 nM. The same compound yielded a Papp at 2 h, 3 µM in data set [2] of 3.5 ×10⁻⁶ cm/s.
Take `CC[C@H]1[C@@H](COc2csc3cc(C(N)=O)c(OC)nc23)NC(=O)C1(F)F` [Example 1, 3-(((2S,3S)-3-Ethyl-4,4-difluoro-5-oxopyrrolidin-2-yl)methoxy)-5-methoxythieno[3,2-b]pyridine-6-carboxamide]: the IC50 at IRAK4 amounted to 0.6 nM. In addition, the EC50 in data set [1] was found to be 58 nM. In addition, the Papp at 2 h, 3 µM in data set [2] was 10.2 ×10⁻⁶ cm/s.
Regarding `CC[C@@H]1[C@H](F)C(=O)N[C@@H]1COc1csc2cc(C(N)=O)c(OC3CC3)nc12` [Example 24, 5-cyclopropoxy-3-(((2S,3S,4S)-3-ethyl-4-fluoro-5-oxopyrrolidin-2-yl)methoxy)thieno[3,2-b]pyridine-6-carboxamide], at IRAK4, the IC50 was found to be 20.2 nM. Further, the EC50 in data set [1] is more than 10000 nM.
Take `COc1nc2c(OC[C@@H]3CCC(=O)N3)c(C)sc2cc1C(N)=O` [Example 25, (S)-5-methoxy-2-methyl-3-((5-oxopyrrolidin-2-yl)methoxy)thieno[3,2-b]pyridine-6-carboxamide]: the IC50 at IRAK4 was 128 nM.
As for `COc1nc2c(OC[C@H]3NC(=O)[C@H](F)[C@H]3C)csc2cc1C(N)=O` [Example 27, 3-(((2S,3S,4R)-4-fluoro-3-methyl-5-oxopyrrolidin-2-yl)methoxy)-5-methoxythieno[3,2-b]pyridine-6-carboxamide], on IRAK4, the IC50 was found to be 1.1 nM. Moreover, in data set [1], a half-maximal effect (EC50) was put at 58 nM. The compound further had a Papp at 2 h, 3 µM in data set [2] of 5.9 ×10⁻⁶ cm/s.
Consider `COc1nc2c(OC[C@H]3NC(=O)[C@H](F)[C@H]3C3CC3)csc2cc1C(N)=O` [Example 18, 3-(((2S,3S,4R)-3-cyclopropyl-4-fluoro-5-oxopyrrolidin-2-yl)methoxy)-5-methoxythieno[3,2-b]pyridine-6-carboxamide], for which, at IRAK4, the IC50 turned out to be 2.8 nM. Besides, in data set [1], the EC50 worked out at 962 nM.
In the same order, the values of `COc1nc2c(OC[C@H]3NC(=O)C[C@H]3C(F)F)csc2cc1C(N)=O` [Example 12, 3-(((2S,3R)-3-(difluoromethyl)-5-oxopyrrolidin-2-yl)methoxy)-5-methoxythieno[3,2-b]pyridine-6-carboxamide] are 2.5 nM and 261 nM.
For the compound `COc1cc2c(OC[C@@H]3CCC(=O)N3)csc2nc1C(N)=O` [Example 3, (S)-5-Methoxy-3-((5-oxopyrrolidin-2-yl)methoxy)thieno[2,3-b]pyridine-6-carboxamide], the IC50 at IRAK4 was 558 nM.
As for `CCC1C[C@@H](COc2csc3cc(C(N)=O)c(OC)nc23)NC1=O` (single isomer, unassigned) [Example 16], the IC50 on IRAK4 stood at 98.1 nM.
As to `CC[C@@H]1CC(=O)N[C@@H]1COc1csc2cc(C(N)=O)c(OC)nc12` [Example 6, 3-(((2S,3R)-3-ethyl-5-oxopyrrolidin-2-yl)methoxy)-5-methoxythieno[3,2-b]pyridine-6-carboxamide], the IC50 at IRAK4 was determined as 1 nM. The same compound gave an EC50 in data set [1] of 3210 nM. Besides, the Papp at 2 h, 3 µM in data set [2] was found to be 8.1 ×10⁻⁶ cm/s.
Take “3-(46S,7R)-7-ethyl-4-oxo-5-azaspiro[2.4]heptan-6-yl)methoxy)-5-methoxythieno[3,2-b]pyridine-6-carboxamide [Example 9]”: the IC50 at IRAK4 was determined as 130 nM.
For `COc1nc2c(OC[C@@H]3CC(C)C(=O)N3)csc2cc1C(N)=O` (single isomer, unassigned) [Example 14], the IC50 on IRAK4 stood at 459 nM.
`CC[C@@H]1CC(=O)N[C@@H]1COc1csc2cc(C(N)=O)c(OC)cc12` [Example 29]: the IC50 on IRAK4 was found to be 0.9 nM. The same compound returned an EC50 in data set [1] of 363 nM.
On to `CC[C@@H]1[C@H](F)C(=O)N[C@@H]1COc1csc2cc(C(N)=O)c(OC(C)C)nc12` [Example 23, 3-(((2S,3S,4S)-3-ethyl-4-fluoro-5-oxopyrrolidin-2-yl)methoxy)-5-isopropoxythieno[3,2-b]pyridine-6-carboxamide], for which the IC50 at IRAK4 came to 1.4 nM. A half-maximal effect in data set [1] (EC50) was put at 189 nM. In data set [2], this compound had a Papp at 2 h, 3 µM of 18.4 ×10⁻⁶ cm/s.
For the compound `CC[C@@H]1[C@H](F)C(=O)N[C@@H]1COc1c(C)sc2cc(C(N)=O)c(OC)nc12` [Example 22, 3-(((2S,3S,4S)-3-ethyl-4-fluoro-5-oxopyrrolidin-2-yl)methoxy)-5-methoxy-2-methylthieno[3,2-b]pyridine-6-carboxamide], at IRAK4, the IC50 is 33.6 nM.
Same read-out and setting: the figure for `COc1nc2c(OCC3COCC(=O)N3)csc2cc1C(N)=O` (racemic) [Example 7, 5-methoxy-3-((5-oxomorpholin-3-yl)methoxy)thieno[3,2-b]pyridine-6-carboxamide] is 615 nM.
As to `COc1nc2c(OC[C@H]3NC(=O)C[C@H]3C)csc2cc1C(N)=O` [Example 17, 5-methoxy-3-(((2S,3R)-3-methyl-5-oxopyrrolidin-2-yl)methoxy)thieno[3,2-b]pyridine-6-carboxamide], the IC50 at IRAK4 worked out at 6 nM. In data set [1], this compound yielded an EC50 of 893 nM.
Regarding `COc1nc2c(OC[C@@H]3C[C@@H](F)C(=O)N3)csc2cc1C(N)=O` [Example 11, 3-(((2S,4R)-4-fluoro-5-oxopyrrolidin-2-yl)methoxy)-5-methoxythieno[3,2-b]pyridine-6-carboxamide], the IC50 on IRAK4 was determined as 4 nM. In data set [1], this compound registered an EC50 of 473 nM.
On to `CCC1C[C@@H](COc2csc3cc(C(N)=O)c(OC)nc23)NC1=O` (single isomer, unassigned) [Example 15], for which the IC50 at IRAK4 was 63.4 nM.

In general, IC50 refers to the concentration at which inhibition is half-maximal. What is called EC50 is the concentration giving half of the maximal effect. A lower EC50 goes with greater potency. The Papp is the rate of passage across a membrane or cell layer, normalised by area and donor concentration. Low values mean poor permeation, high ones ready permeation.
